Test results taken from patent publication US20220128542A1, “TREATMENT EFFICIENCY EVALUATION” (TX MEDIC AB, priority 2019, published 2022).

Tested on: Mouse cortical neurons
Test: Gene expression array and pathway analysis in cortical neurons (Example 2)
Type: cell-based
Details: for differentially expressed genes: cortical neuron section (printed motor neurons)
Protocol: For each cell line, n=8×25 cm^2 culture flasks were set up. Two flasks were harvested for each cell type on the day of treatment (24 hours after seeding). This represents the Day0 time point. From the remaining flasks, three flasks were treated with Control Medium and three were treated with Culture Medium (CM) containing LMW-DS to give a final concentration of 0.01 mg/ml. Cells from the treated flasks were collected after 48 hours. Therefore the collected data represent (a) untreated cells (Day0 Controls and Day2 Controls) and (b) cells treated with LMW-DS for 48 hours (Day2 LMW-DS treated).
25 cm^2 flasks were coated by adding 2 ml per flask of a solution of 50 μg/ml poly-d-lysine in Hank's balanced salt solution (HBSS) and incubating overnight at 37° C. in the dark. Flasks were washed with cell culture water and air-dried for 30 min in the dark. Flasks were coated by adding 1 ml per flask of a solution of 25 μg/ml laminin in phosphate-buffered saline (PBS) and incubating for 2 hour at 37° C. in the dark. The laminin flasks were washed with PBS three times before plating cells.
Medium was prepared by adding 10 ml B-27 Serum-Free Supplement and 2.5 ml GlutaMAX™-I Supplement to 500 ml of Neurobasal medium. The medium was pre-warmed to 37° C. Cells from 12 vials were thawed sequentially in a 37° C. water bath for no longer than 2 min and gently transferred into a 15 ml tube. 9 ml of medium was gently added drop-wise to each. The cell suspension was mixed by inverting the tubes carefully twice.
The cells were centrifuged for 5 minutes at 200×g. Supernatant was removed (to the last 0.5 ml) and cells were gently re-suspended by trituration. The cells from the 12 vials were mixed and distributed equally into the previously coated 25 cm^2 flasks (n=8). Cells were incubated at 37° C. with 5% CO2 for 24 hours.
A fresh 100× LMW-DS stock (1.0 mg/ml) was prepared in sterile DMEM-F12. The concentrated drug stock was sterile filtered and added to the respective culture media (19.6 ml CM and 0.4 ml LMW-DS stock solution). The Control was made using 19.6 ml CM and 0.4 ml of DMEM-F12. LMW-DS and CM were added to the respective flasks (5 ml each) to reach the 0.01 mg/ml concentration of LMW-DS in each dish with a total of 10 ml CM each.
CM was aspirated into a clean and labelled 15 ml Falcon tube. The flasks (without culture medium) were placed into the −80° C. freezer for 30 minutes. The CM in the Falcon tubes was spun at 3000×g for 5 minutes. Supernatant was removed and the small pellet was re-suspended in 2.5 ml Trizol:Water (4:1) solution at room temperature (RT, ˜22° C.).
The frozen flasks were removed one-by one from the freezer and the Trizol-Water from the appropriate tubes was moved to the flask. Flasks were left at RT for 5 minutes before the content was aspirated back into the 15 ml Falcon tube (after washing the bottom of the flask with the solution thoroughly). The flasks were inspected under the microscope to ensure full removal of cells. The collected lysates in the 15 ml Falcon tubes were placed into the −80° C. freezer.
Falcon tubes containing the homogenates were removed from the freezer and stored for 5 minutes at RT to permit the complete dissociation of nucleoprotein complexes.
Two aliquots of 1 ml lysate were removed from each sample and 200 μl of chloroform was added to each (0.2 ml of chloroform per 1 ml of TRIzol Reagent used during the cell lysis step) and the tube was shaken vigorously. Samples were stored at RT for 2-3 minutes and subsequently centrifuged at 12,000×g for 15 minutes at 4° C.
The mixture separated into three layers: a lower red phenol-chloroform phase, an interphase and a colorless upper aqueous phase. The RNA remained in the top aqueous phase, DNA in the white middle (interphase) phase and protein in the pink bottom (organic) phase. The top ¾ of the aqueous phase was transferred to a new clean Eppendorf tube.
The RNA was precipitated from the aqueous phase by adding an equal amount of 100% ethanol. […]

[1] = cortical neurons, 0.01 mg/ml, 48 hours

## sodium salt of dextran sulfate [LMW-DS]
D0 control vs D2 LMW-DS treated, 0.01 mg/ml
  differentially expressed genes: 609 genes
Second comparison, printed as D0 control to D2 LMW-DS treated
  differentially expressed genes: 247 genes
[1]
  number of genes: no effect / abolished nutrient effect: 572
  number of genes: no effect / new effect induced by LMW-DS: 19
  number of genes: no effect / total: 591
  number of genes: significant downregulation / abolished nutrient effect: 7
  number of genes: significant downregulation / enhanced response to nutrients: 158
  number of genes: significant downregulation / new effect induced by LMW-DS: 22
  number of genes: significant downregulation / not different from control: 95
  number of genes: significant downregulation / total: 282
  number of genes: significant upregulation / abolished nutrient effect: 33
  number of genes: significant upregulation / enhanced response to nutrients: 43
  number of genes: significant upregulation / new effect induced by LMW-DS: 7
  number of genes: significant upregulation / not different from control: 221
  number of genes: significant upregulation / total: 304
  number of genes: total / abolished nutrient effect: 612
  number of genes: total / enhanced response to nutrients: 612
  number of genes: total / new effect induced by LMW-DS: 48
  number of genes: total / not different from control: 316
  number of genes: total / total: 1177
